Results taken from US8415312B2, “Compound which is a nystatin derivative” (Biosergen AS, priority 2007, dated 2013).
Values after ≈ are worked out from the molar mass of the structure shown.

Tests used:
[1] = system: Candida albicans ATCC 14053; assay: Antifungal susceptibility study (1), broth microdilution MIC; format: cell-based; details: lowest concentration preventing any visible growth, read at 48 hours, 35° C., RPMI 1640 pH 7.0
Summary of the method: (§1)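 Broth microdilution in test medium at pH 7.0 with two-fold compound dilutions (DMSO stocks diluted 50-fold into medium), inoculated with freshly grown yeast cultures. Plates were incubated without agitation at 35° C. for C. albicans or 25° C. for C. humicolus. MIC was taken as the concentration with no visible growth, read at 48 hours.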

[2] = system: Cryptococcus humicolus ATCC 9949; assay: as above; format: cell-based; details: lowest concentration preventing any visible growth, read at 48 hours, 25° C., RPMI 1640 pH 7.0
Summary of the method: as §1

[3] = system: Candida albicans ATCC 10231; assay: Antifungal susceptibility study (2), MIC50 by OD490 growth; format: cell-based; details: 50% growth inhibition from regression curve, M19 medium without NaCl, 30° C.
Procedure: The anti-fungal activity of several of the nystatin derivatives was further investigated. […] The anti-fungal activity of a number of the nystatin derivatives was therefore determined in a method which is designed to be more sensitive.
The test organism used for the further testing of polyene macrolide bioactivity was Candida albicans ATCC 10231, grown in 120 μl of standard M19 medium without NaCl (with an inoculum of 1000 cfu per well) and 30 μl of diluted polyene macrolide samples. The antibiotics were diluted in MeOH in series ensuring a spectrum of concentrations which yielded results ranging from complete growth inhibition to no inhibition of the test organism. The test organism cultures with antibiotic dilutions were incubated in 96-well microtiter plates at 30° C. without shaking, and growth was measured as OD490 after 12, 14 and 16 hours on a SpectraMax Plus microtiter plate reader. OD was plotted against antibiotic concentration, and MIC50 was estimated from the regression curve at 50% growth inhibition.

[4] = system: mice (C57B1/6xDBA/2)F1 B6D2F1; details: single injection into tail vein, probit analysis
Summary of the method: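 Male B6D2F1 mice, 20-22 g, given one tail-vein injection of antibiotic suspended with sodium deoxycholate in phosphate buffer, within 1-1.5 h of preparation. Doses spanned 0% to 100% lethality with at least 3 intermediate doses, in randomized groups of 6 mice.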

[5] = system: yeasts and filamentous fungi (moulds); assay: Antifungal susceptibility study (1), overall comparison across the test organisms; format: cell-based; details: for antifungal activity, rank within the series: Tables 7 and 8; for anti-fungal activity compared with Amphotericin B and S44HP: Table 5 MICs
Procedure: The organisms used for susceptibility testing were: Candida albicans ATCC 14053, Cryptococcus humicolus ATCC 9949, Aspergillus niger ATCC 16404 and Fusarium oxysporum VKM F-140 (=CMI, IMI 90473). Organisms were stored on potato dextrose agar […] 50% glycerol solution at -70° C. For short-term storage, stock cultures were stored on agar […] 4° C. The cultures of yeasts were sub-cultured onto Sabouraud dextrose (SAB) agar and incubated for 24 hours at 35° C. (Candida albicans) or for 48 hours at 25° C. (Cryptococcus humicolus) to obtain a freshly grown pure culture. The cultures of moulds were sub-cultured onto potato dextrose agar and incubated for 7 days at 35° C. […] (Fusarium oxysporum) to ensure maximum sporulation. Sterile 96-well flat-bottomed microtitration plates were used for testing. 100 μl of diluted inocula were dispensed into each microdilution well containing 100 μl of the double dilutions of compounds. Drug-free and yeast/mould-free controls were included. Microdilution trays were incubated at 35° C. (Candida albicans and moulds) or 25° C. (Cryptococcus humicolus) without agitation and observed for the presence or absence of visible growth. […] Minimal inhibitory concentrations (MICs) were read at 48 hours.

| Compound | MIC Candida albicans ATCC 14053 [1] | MIC Cryptococcus humicolus ATCC 9949 [2] | MIC50 [3] | LD50 [4] | MTD [4] | antifungal activity, rank within the series [5] | anti-fungal activity compared with Amphotericin B and S44HP [5] |
| --- | --- | --- | --- | --- | --- | --- | --- |
| C[C@@H]1[C@H](O)[C@@H](C)/C=C/C=C/C=C/C=C/C=C/C=C/C=C/[C@H](O[C@@H]2O[C@H](C)[C@@H](O)[C@H](N)[C@@H]2O)C[C@@H]2O[C@](O)(C[C@@H](O)C[C@@H](O)[C@H](O)CC[C@@H](O)C[C@@H](O)CC(=O)O[C@H]1C)C[C@H](O)[C@H]2C(=O)O [Amphotericin B, reference compound] | 1 µg/mL (≈ 1.08 µM) | 1 µg/mL (≈ 1.08 µM) | 0.12 µg/mL (≈ 0.13 µM) | 2.8 mg/kg | 2.01 mg/kg | – | – |
| CC1O[C@@H](O[C@H]2/C=C/C=C/C=C/C=C/C=C/C=C/C=C/[C@H](C)[C@@H](O)[C@@H](C)[C@H](C)OC(=O)C[C@H](O)C[C@H](O)C[C@H](O)CC[C@@H](O)[C@H](O)C[C@]3(O)C[C@H](O)[C@@H](C)[C@H](C2)O3)[C@H](O)C(NC(=O)[C@@H](N)CCCCN)[C@@H]1O (stereo partly drawn) [Compound 51, N-L-Lysyl-Compound 1] | 1 µg/mL (≈ 0.978 µM) | 1 µg/mL (≈ 0.978 µM) | – | 5.3 mg/kg | 4.48 mg/kg | most active derivative in this series with antifungal activity slightly higher than the parent antibiotic | – |
| CC1C=CC=CC=CC=CC=CC=CC=CC(OC2OC(C)C(O)C(N)C2O)CC2OC(O)(CC(O)C(O)CCC(O)CC(O)CC(O)CC(=O)OC(C)C(C)C1O)CC(O)C2C(=O)NCCCN(C)C (stereo not drawn) [Compound 11, S44HP DMAP Amide] | 1 µg/mL (≈ 0.992 µM) | 1 µg/mL (≈ 0.992 µM) | 0.12 µg/mL (≈ 0.119 µM) | 16.4 mg/kg | 11.9 mg/kg | – | comparable anti-fungal activity to Amphotericin B and S44HP |
| CC1C=CC=CC=CC=CC=CC=CC=CC(OC2OC(C)C(O)C(N)C2O)CC2OC(O)(CC(O)C(O)CCC(O)CC(O)CC(O)CC(=O)OC(C)C(C)C1O)CC(O)C2C (stereo not drawn) [Compound 1] | 1 µg/mL (≈ 1.12 µM) | 1 µg/mL (≈ 1.12 µM) | 0.07 µg/mL (≈ 0.0783 µM) | 15.4 mg/kg | 7.8 mg/kg | – | comparable anti-fungal activity to Amphotericin B and S44HP |
| CC1C=CC=CC=CC=CC=CC=CC=CC(OC2OC(C)C(O)C(N)C2O)CC2OC(O)(CC(O)C(O)CCC(O)CC(O)CC(O)CC(=O)OC(C)C(C)C1O)CC(O)C2C.NC(CCC(=O)O)C(=O)O [Compound 29, Compound 1 L-glutamate] | 1 µg/mL | 1 µg/mL | – | 17.8 mg/kg | 11.0 mg/kg | most active salt of Compound 1 | – |
